Like-named read-outs stand apart in the source and are kept apart here.
Experiments:
[1] = log P by HPLC on reversed-phase column (EEC Directive 79/831 Annex V.A8); type: physicochemical; conditions: reversed-phase C18 HPLC column, 55° C.
Method: The log P values are measured according to EEC Directive 79/831 Annex V.A8 by HPLC (high-performance liquid chromatography) on a reversed-phase column (C 18). Temperature: 55° C. The LC-MS determination in the acidic range is effected at pH 2.7 using 0.1% aqueous formic acid and acetonitrile (contains 0.1% formic acid) as eluents; linear gradient from 10% acetonitrile to 95% acetonitrile. Called log P (HCOOH) in the table. LC-MS determination in the neutral range is effected at pH 7.8 with 0.001 molar aqueous ammonium hydrogencarbonate solution and acetonitrile as eluents; linear gradient from 10% acetonitrile to 95% acetonitrile. Called log P (neutral) in the table. Calibration is carried out using unbranched alkan-2-ones (having 3 to 16 carbon atoms) with known log P values (log P values determined on the basis of the retention times by linear interpolation between two successive alkanones).

Myzus persicae = Myzus persicae spray test; type: in vivo; conditions: foliar, Chinese cabbage leaf discs, after 5-6 days, read-out: efficacy
Method: (§1) To produce a suitable active ingredient preparation, 1 part by weight of active ingredient is dissolved with the stated parts by weight of solvent and made up with water containing an emulsifier concentration of 1000 ppm until the desired concentration is attained. To produce further test concentrations, the preparation is diluted with emulsifier-containing water. Discs of Chinese cabbage leaves (Brassica pekinensis) infested by all stages of the green peach aphid (Myzus persicae) are sprayed with an active ingredient preparation of the desired concentration. After 5-6 days, the efficacy in % is determined. 100% means that all the aphids have been killed; 0% means that no aphids have been killed.

Spodoptera frugiperda = Spodoptera frugiperda spray test; type: in vivo; conditions: foliar, 168 h, caterpillars on maize leaf discs, after 7 days, read-out: efficacy
Method: To produce a suitable active ingredient preparation, 1 part by weight of active ingredient is dissolved with the stated parts by weight of solvent and made up with water containing an emulsifier concentration of 1000 ppm until the desired concentration is attained. To produce further test concentrations, the preparation is diluted with emulsifier-containing water. Leaf discs of maize (Zea mays) are sprayed with an active ingredient preparation of the desired concentration and, after drying, populated with caterpillars of the armyworm (Spodoptera frugiperda). After 7 days, the efficacy in % is determined. 100% means that all the caterpillars have been killed; 0% means that no caterpillar has been killed.

Phaedon cochleariae = Phaedon cochleariae spray test; type: in vivo; conditions: foliar, 168 h, larvae on Chinese cabbage leaf discs, after 7 days, read-out: efficacy
Method: as §1, with “pekinensis)” for “pekinensis) infested by all stages of the green peach aphid (Myzus persicae)”, “concentration and, after drying, populated with larvae of the mustard beetle (Phaedon cochleariae).” for “concentration.”, “7” for “5-6”, “beetle larvae” for “aphids”

[2] = pH 7.8, aqueous ammonium hydrogencarbonate/acetonitrile, read-out: log P (neutral)
[3] = pH 2.7, 0.1% aqueous formic acid/acetonitrile, read-out: log P (acidic)

| SMILES | chromatographic logP [1, 2] | pest or weed control at 500 g/ha (Spodoptera frugiperda) [%] | also measured |
| --- | --- | --- | --- |
| CCSc1cc2ccccc2nc1C(C)=O [1-[3-(Ethylsulphanyl)quinolin-2-yl]ethanone] | 3.31 |  |  |
| CCSc1cc2ccccc2nc1C(=O)CBr [2-Bromo-1-[3-(ethylsulphanyl)quinolin-2-yl]ethanone] |  |  | chromatographic logP [1, 3]: 3.95 |
| CCSc1ccc2nc(-c3nc4cc(C(F)(F)F)ncc4n3C)c(SCC)cc2c1 [3,6-bis(ethylsulphanyl)-2-[3-methyl-6-(trifluoromethyl)imidazo[4,5-c]pyridin-2-yl]quinoline] | 4.35 |  |  |
| CCSc1cc2cc(Cl)ccc2nc1-c1nc2cc(C(F)(F)F)ncc2n1C [6-Chloro-3-ethylsulphanyl-2-[3-methyl-6-(trifluoromethyl)imidazo[4,5-c]pyridin-2-yl]quinoline] | 3.99 |  |  |
| CCSc1cc2ccccc2nc1-c1nc2cc(C(F)(F)F)ncc2n1C [Example I-2, 3-Ethylsulphanyl-2-[3-methyl-6-(trifluoromethyl)imidazo[4,5-c]pyridin-2-yl]quinoline] | 3.3 | 100 | pest or weed control at 100 g/ha (Myzus persicae): 100% |
| CCS(=O)(=O)c1nc2ccccc2nc1-c1nc2cc(C(F)(F)F)ncc2n1C [Example I-3, 2-Ethylsulphonyl-3-[3-methyl-6-(trifluoromethyl)imidazo[4,5-c]pyridin-2-yl]quinoxaline] | 2.45 |  |  |
| CCS(=O)(=O)c1cc2ccccc2nc1-c1nc2cc(C(F)(F)F)cnc2n1C [Example I-5] |  | 100 | pest or weed control at 500 g/ha (Myzus persicae): 70%; pest or weed control at 500 g/ha (Phaedon cochleariae): 100% |
| CCS(=O)(=O)c1ccc2nc(-c3nc4cc(C(F)(F)F)ncc4n3C)c(S(=O)(=O)CC)cc2c1 [Example I-6, 3,6-Bis(ethylsulphonyl)-2-[3-methyl-6-(trifluoromethyl)imidazo[4,5-c]pyridin-2-yl]quinoline] | 2.58 | 100 | pest or weed control at 500 g/ha (Myzus persicae): 90%; pest or weed control at 500 g/ha (Phaedon cochleariae): 83% |
| CCS(=O)(=O)c1cc2cc(Cl)ccc2nc1-c1nc2cc(C(F)(F)F)ncc2n1C [Example I-7] |  | 100 | pest or weed control at 500 g/ha (Myzus persicae): 90%; pest or weed control at 500 g/ha (Phaedon cochleariae): 100% |
| CCS(=O)(=O)c1cc2ccccc2nc1-c1nc2cc(C(F)(F)C(F)(F)F)ncc2n1C [Example I-10] |  | 100 | pest or weed control at 500 g/ha (Myzus persicae): 90%; pest or weed control at 500 g/ha (Phaedon cochleariae): 100% |
| CCS(=O)(=O)c1cc2ccccc2nc1-c1nc2cc(C(F)(F)F)ccc2n1C [Example I-12] |  | 100 | pest or weed control at 500 g/ha (Myzus persicae): 90%; pest or weed control at 500 g/ha (Phaedon cochleariae): 100% |
| CCS(=O)(=O)c1cc2ccccc2nc1-c1nc2cc3c(cc2[nH]1)OC(F)(F)O3 [Example I-15, 6-(3-Ethylsulphonyl-2-quinolyl)-2,2-difluoro-5H-[1,3]dioxolo[4,5-f]benzimidazole] | 3.37 | 100 | pest or weed control at 500 g/ha (Phaedon cochleariae): 100% |
| CCS(=O)(=O)c1cc2ccccc2nc1-c1nc2cc(C(F)(F)F)ccc2o1 [Example I-17] |  | 100 | pest or weed control at 500 g/ha (Myzus persicae): 90%; pest or weed control at 500 g/ha (Phaedon cochleariae): 100% |
| CCS(=O)(=O)c1cc2ccccc2nc1-c1nc2cc(C(F)(F)C(F)(F)F)cnc2n1C [Example I-20] |  |  | pest or weed control at 100 g/ha (Myzus persicae): 100%; pest or weed control at 100 g/ha (Phaedon cochleariae; 100 g/ha): 100%; pest or weed control at 100 g/ha (Spodoptera frugiperda; 100 g/ha): 100% |
| CCSc1cc2ccccc2nc1-c1nc2cc(C(F)(F)F)cnc2n1C [Example I-25] |  | 100 | pest or weed control at 500 g/ha (Phaedon cochleariae): 100% |
| CC[S+]([O-])c1cc2ccccc2nc1-c1nc2cc(SC(F)(F)F)ccc2o1 (stereo not drawn) [Example I-30] |  | 100 | pest or weed control at 500 g/ha (Myzus persicae): 70%; pest or weed control at 500 g/ha (Phaedon cochleariae): 83% |
| CCSc1cc2ccccc2nc1-c1nc2cc(C(F)(F)C(F)(F)F)ncc2n1C [Example I-35] |  | 100 | pest or weed control at 500 g/ha (Phaedon cochleariae): 83% |
| CCS(=O)(=O)c1cnc2nc(-c3nc4cc(C(F)(F)F)ncc4n3C)c(S(=O)(=O)CC)cc2c1 [Example I-41, 3,6-Bis(ethylsulphonyl)-2-[3-methyl-6-(trifluoromethyl)-3H-imidazo[4,5-c]pyridin-2-yl]-1,8-naphthyridine] | 2.21 |  | pest or weed control at 500 g/ha (Myzus persicae): 90% |
| CCSc1cc2ccccc2nc1-c1cn2cnc(C(F)(F)F)cc2n1 [Example I-46, 3-(Ethylsulphanyl)-2-[7-(trifluoromethyl)imidazo[1,2-c]pyrimidin-2-yl]quinoline] | 3.24 |  |  |
| Cn1c(-c2nc3ccccc3cc2Cl)nc2cc(C(F)(F)F)ncc21 [Example V-1, 3-Chloro-2-[3-methyl-6-(trifluoromethyl)imidazo[4,5-c]pyridin-2-yl]quinoline] | 2.89 |  |  |
| Cn1c(-c2nc3ccccc3nc2Cl)nc2cc(C(F)(F)F)ncc21 [Example V-2, 2-Chloro-3-[3-methyl-6-(trifluoromethyl)imidazo[4,5-c]pyridin-2-yl]quinoxaline] | 2.84 |  |  |
| Cn1c(-c2nc3ccc(Cl)cc3cc2Cl)nc2cc(C(F)(F)F)ncc21 [Example V-4, 3,6-Dichloro-2-[3-methyl-6-(trifluoromethyl)imidazo[4,5-c]pyridin-2-yl]quinoline] | 3.53 |  |  |
| O=C(O)c1nc2ncc(Cl)cc2cc1Cl [III-1, 3,6-Dichloro-1,8-naphthyridine-2-carboxylic acid] |  |  | chromatographic logP [1, 3]: 0.7 |
| CCSc1cc2ccccc2nc1C(=O)Nc1cc(C(F)(F)F)cnc1Cl [IV-1] | 5.71 |  |  |
| CCS(=O)(=O)c1c(-c2nc3cc(C(F)(F)F)ncc3n2C)ncc2ccccc12 [I′-44] |  | 100 | pest or weed control at 500 g/ha (Myzus persicae): 90%; pest or weed control at 500 g/ha (Phaedon cochleariae): 83% |
| O=C(O)c1ccc2cccnc2n1 [XXX-1, 1,8-Naphthyridine-2-carboxylic acid] |  |  | chromatographic logP [1, 3]: -0.12 |
| COC(=O)c1nc2ncc(Cl)cc2cc1Cl [XXXI-1, Methyl 3,6-dichloro-1,8-naphthyridine-2-carboxylate] | 1.93 |  |  |

More lines, main results first:

| chromatographic logP [1, 2] | SMILES | pest or weed control at 500 g/ha (Spodoptera frugiperda) [%] | also measured |
| --- | --- | --- | --- |
| 2.17 | CCSc1cc2ccccc2nc1C(=O)N(C)OC [3-(Ethylsulphanyl)-N-methoxy-N-methylquinoline-2-carboxamide] |  |  |
| 0.48 | CCSc1cc2ccccc2nc1C(=O)O [3-(Ethylsulphanyl)quinoline-2-carboxylic acid] |  |  |
| 3.42 | CCS(=O)(=O)c1cc2ccccc2nc1-c1nc2cc(S(=O)(=O)C(F)(F)F)ccc2n1C [Example I-24, 3-Ethylsulphonyl-2-[1-methyl-5-(trifluoromethylsulphonyl)benzimidazol-2-yl]quinoline] |  |  |
| 4.36 | CCSc1cc2ccccc2nc1-c1nc2cc(C(F)(F)F)cnc2o1 [Example I-27] |  |  |
| 2.98 | CC[S+]([O-])c1cc2ccccc2nc1-c1nc2cc(C(F)(F)F)cnc2o1 (stereo not drawn) [Example I-28] |  |  |
| 4.26 | CCSc1cc2ccccc2nc1-c1nc2cc3c(cc2[nH]1)OC(F)(F)O3 [Example I-31, 6-(3-Ethylsulphanyl-2-quinolyl)-2,2-difluoro-5H-[1,3]dioxolo[4,5-f]benzimidazole] |  |  |
| 2.44 | Cn1c(-c2nc3ncc(Cl)cc3cc2Cl)nc2cc(C(F)(F)F)ncc21 [Example V-3, 3,6-Dichloro-2-[3-methyl-6-(trifluoromethyl)-3H-imidazo[4,5-c]pyridin-2-yl]-1,8-naphthyridine] |  |  |
| 0.77 | COC(=O)c1ccc2cccnc2n1 [XXII-1, Methyl 1,8-naphthyridine-2-carboxylate] |  |  |
| 0.92 | COC(=O)c1ccc2ncccc2n1 [XXII-2, Methyl 1,5-naphthyridine-2-carboxylate] |  |  |
| 2.46 | COC(=O)c1nc2ccc(Cl)nc2cc1Cl [XXXI-2, Methyl 3,6-dichloro-1,5-naphthyridine-2-carboxylate] |  |  |
